Here are results for 3 substances from patent US20110039762A1, “TARGETED ANTIMICROBIAL MOIETIES” (C3 JIAN, INC., priority 2009, published 2011).

Entries after “also recorded” stand apart in the source; their conditions may differ. Like-named read-outs stand apart in the source and are kept apart here. Ends that are not written are not given here.

The subject of assay [1] is S. epidermidis. Kind of assay: Kill or inhibit growth/proliferation; morphology, biofilm and growth disruption (Tables 5, 6). The arrangement: key: A: Peptide aggregates; B: Less hyphal formation; Clumps; Diffuse clumps and small polyps; F: Diffuse growth; H: Thin; I: Growth inhibition; Microcolony formation; Rippled; Small polyps; Thick; W: Halo formation on top, microlonies on bottom. Format: cell-based, Staphylococcus epidermidis.

Assay [2] has as its system C. jeikeium. The description is as above. The assay is classed as cell-based, Corynebacterium jeikeium. The arrangement: key: A: Peptide aggregates; B: Less hyphal formation; Clumps; Diffuse clumps and small polyps; F: Diffuse growth; H: Thin; I: Growth inhibition; Microcolony formation; Rippled; Small polyps; Thick; W: Halo formation on top, microlonies on bottom.
In assay [3] the test system is B. subtilis. The description is as above. The arrangement: key: A: Peptide aggregates; B: Less hyphal formation; Clumps; Diffuse clumps and small polyps; F: Diffuse growth; H: Thin; I: Growth inhibition; Microcolony formation; Rippled; Small polyps; Thick; W: Halo formation on top, microlonies on bottom. Format: cell-based, Bacillus subtilis.
A further assay has as its system T. rubrum. Briefly: MIC (broth microdilution). Format: cell-based, Trichophyton rubrum. On the procedure:
(§1) Typically, the in vitro antimicrobial activity of antimicrobial agents is tested using standard NCCLS bacterial inhibition assays, or MIC tests (see, National Committee on Clinical Laboratory Standards “Performance Standards for Antimicrobial Susceptibility Testing,” NCCLS Document M100-S5 Vol. 14, No. 16, December 1994; “Methods for dilution antimicrobial susceptibility test for bacteria that grow aerobically-Third Edition,” Approved Standard M7-A3, National Committee for Clinical Standards, Villanova, Pa.).
(§2) Briefly, ˜1×10^5 cfu/mL bacteria were diluted in TH (S. mutans), or Mueller-Hinton (MH) broth (all other organisms) and distributed to 96-well plates. Serially-diluted (2-fold) peptides were then added and the plates incubated at 37° C. for 18-24 h. […] All experiments were conducted 10 times.
(Dilution methods test growth across graded concentrations, often in twofold steps.)

Assay [4] deals with S. epidermidis. The assay is classed as cell-based, Staphylococcus epidermidis. The gist of the method:
(§3)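 Peptides are serially diluted 2-fold and added to Mueller-Hinton broth cultures at ˜1×10^5 cfu/mL, then incubated at 37° C. for 18-24 h.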

In assay [5] the test system is C. jeikeium. Kind of assay: MIC (broth microdilution). Format: cell-based, Corynebacterium jeikeium. On the procedure:
as §1, §2

In assay [6] the test system is B. subtilis. Kind of assay: MIC (broth microdilution). Format: cell-based, Bacillus subtilis. The gist of the method:
as §3

Assay [7] has as its system MRSA. Briefly: Kill or inhibit growth/proliferation; morphology, biofilm and growth disruption (Tables 5, 6). Format: cell-based, Methicillin-resistant Staphylococcus aureus. The arrangement: key: A: Peptide aggregates; B: Less hyphal formation; Clumps; Diffuse clumps and small polyps; F: Diffuse growth; H: Thin; I: Growth inhibition; Microcolony formation; Rippled; Small polyps; Thick; W: Halo formation on top, microlonies on bottom.

A further assay has as its system microorganisms. Briefly: Peptides having multiple activities (targeting/binding, antimicrobial, growth or phenotype altering). From the text: In certain embodiments, peptides described herein can have multiple activities. Thus for example, a peptide can have both binding/targeting activity and antimicrobial activity. Such peptides can be used, e.g., in a chimeric construct, for any or all of these properties. Thus, for example, a peptide designated “B” in Table 8 can be used as a targeting peptide. If it is also designated G or M it can also be used for antimicrobial activity.

In assay [8] the test system is P. aeruginosa. Briefly: Kill or inhibit growth/proliferation; morphology, biofilm and growth disruption (Tables 5, 6). Format: cell-based, Pseudomonas aeruginosa. The arrangement: key: A: Peptide aggregates; B: Less hyphal formation; Clumps; Diffuse clumps and small polyps; F: Diffuse growth; H: Thin; I: Growth inhibition; Microcolony formation; Rippled; Small polyps; Thick; W: Halo formation on top, microlonies on bottom.

A further assay has as its system C. jejuni. Described as above. The arrangement: key: A: Peptide aggregates; B: Less hyphal formation; Clumps; Diffuse clumps and small polyps; F: Diffuse growth; H: Thin; I: Growth inhibition; Microcolony formation; Rippled; Small polyps; Thick; W: Halo formation on top, microlonies on bottom. The assay is classed as cell-based, Campylobacter jejuni.
The next assay relates to A. niger. Briefly: MIC (broth microdilution). The assay is classed as cell-based, Aspergillus niger. The gist of the method:
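~1×10^5 cfu/mL inoculum, MH broth; peptides 2-fold serial dilution; 37° C., 18-24 h; n=10; NCCLS M7-A3 method.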

The test system of another assay is M. luteus. Briefly: Kill or inhibit growth/proliferation; morphology, biofilm and growth disruption (Tables 5, 6). Format: cell-based, Micrococcus luteus. The arrangement: key: A: Peptide aggregates; B: Less hyphal formation; Clumps; Diffuse clumps and small polyps; F: Diffuse growth; H: Thin; I: Growth inhibition; Microcolony formation; Rippled; Small polyps; Thick; W: Halo formation on top, microlonies on bottom.

The subject of assay [9] is P. aeruginosa. The assay is classed as cell-based, Pseudomonas aeruginosa. As to the method:
as §1, §2

Assay [10] concerns C. albicans. Briefly: Kill or inhibit growth/proliferation; morphology, biofilm and growth disruption (Tables 5, 6). The assay is classed as cell-based, Candida albicans. The arrangement: key: A: Peptide aggregates; B: Less hyphal formation; Clumps; Diffuse clumps and small polyps; F: Diffuse growth; H: Thin; I: Growth inhibition; Microcolony formation; Rippled; Small polyps; Thick; W: Halo formation on top, microlonies on bottom.

Assay [11] has as its system MRSA. Briefly: MIC (broth microdilution). Format: cell-based, Methicillin-resistant Staphylococcus aureus. The gist of the method: as §3
For a further assay, the system named is S. pneumoniae. Kind of assay: Kill or inhibit growth/proliferation; morphology, biofilm and growth disruption (Tables 5, 6). The arrangement: key: A: Peptide aggregates; B: Less hyphal formation; Clumps; Diffuse clumps and small polyps; F: Diffuse growth; H: Thin; I: Growth inhibition; Microcolony formation; Rippled; Small polyps; Thick; W: Halo formation on top, microlonies on bottom. Format: cell-based, Streptococcus pneumoniae.

The subject of assay [12] is C. albicans. Kind of assay: MIC (broth microdilution). The assay is classed as cell-based, Candida albicans. As to the method: as §1, §2
Assay [13] has as its system microorganisms (e.g., bacteria, yeasts, fungi). Briefly: Targeting peptide binding to target microorganisms (Table 3). The conditions noted are these: microorganism(s) the targeting peptide binds; binding in aqueous buffers depending on peptide solubility, preferably 1x PBS.
The next assay has as its system A. baumannii. Kind of assay: MIC (broth microdilution). The assay is classed as cell-based, Acinetobacter baumannii. As to the method:
as §1, §2

The test system of another assay is S. mutans. Format: cell-based, Streptococcus mutans. The conditions noted are these: S. mutans.
A further assay relates to E. coli. Briefly: Kill or inhibit growth/proliferation; morphology, biofilm and growth disruption (Tables 5, 6). The assay is classed as cell-based, Escherichia coli. The arrangement: key: A: Peptide aggregates; B: Less hyphal formation; Clumps; Diffuse clumps and small polyps; F: Diffuse growth; H: Thin; I: Growth inhibition; Microcolony formation; Rippled; Small polyps; Thick; W: Halo formation on top, microlonies on bottom.

The subject of another assay is C. difficile. Kind of assay: MIC (broth microdilution). Format: cell-based, Clostridium difficile. On the procedure: as §1, §2

As to “GSVIKKRRKRMAKKKHRKLLKKTRIQRRRAGK [PF-527]”, the “Organism, effect” value was “S. epidermidis (M)” with S. epidermidis [1]; “C. jeikeium (I)” in the assay on C. jeikeium [2]; “B. subtilis (I)” with B. subtilis [3]; “MRSA (I)” in the assay with MRSA [7]; “P. aeruginosa (I)” in the assay on P. aeruginosa [8]; “C. jejuni (M)” in the assay on C. jejuni. Moreover, the “Organism, effect” value is “M. luteus (S)” in the assay with M. luteus, “C. albicans (B)” in the assay with C. albicans [10] and “S. pneumoniae (H)” in the assay on S. pneumoniae. Moreover, the MIC result was “T. rubrum, 25 μM” against T. rubrum; “S. epidermidis, 25 μM” in the assay on S. epidermidis [4]; “C. jeikeium, 6.25 μM” in the assay with C. jeikeium [5]; “B. subtilis, 12.5 μM” with B. subtilis [6]; “A. niger, 50 μM” against A. niger; “P. aeruginosa, 50 μM” with P. aeruginosa [9]. Also, the MIC entry in the assay with MRSA [11] is “MRSA , 50 μM”. In addition, the Activities result in the assay on microorganisms is reported as “G B M”.

In the case of LSLATFAKIFMTRSNWSLKRFNRL [PF-278], the “Organism, effect” value was “S. epidermidis (I)” in the assay with S. epidermidis [1], “M. luteus (R)” in the assay with M. luteus and “C. albicans (B)” with C. albicans [10]. In addition, the MIC result in the assay with T. rubrum is reported as “T. rubrum, 50 μM”; with C. albicans [12], “C. albicans, 50 μM”; against S. epidermidis [4] (S. epidermidis), “S. epidermidis, 50 μM”. Besides, in the assay with microorganisms, the Activities entry is “G B M”. Besides, the “Target(s)” value in assay [13] is on record as “M. luteus; also recorded: A. baumannii”.

Take YIQFHLNQQPRPKVKKIKIFL-NH2 [PF-531]: the “Organism, effect” value in the assay on S. epidermidis [1] is on record as “S. epidermidis (I)”; with P. aeruginosa [8] it was “P. aeruginosa (I)”; in the assay on E. coli it was “E. coli (M)”; with S. pneumoniae, “S. pneumoniae (C)”. For the same substance, the MIC result was “A. baumannii, 25 μM” in the assay with A. baumannii; “T. rubrum, 50 μM” in the assay on T. rubrum; “S. mutans, 12.5 μM” in the assay on S. mutans; “S. epidermidis, 50 μM” with S. epidermidis [4] (S. epidermidis); “C. jeikeium, 6.25 μM” against C. jeikeium [5]; “B. subtilis, 25 μM” in the assay on B. subtilis [6]. Moreover, the MIC result against A. niger is “A. niger, 25 μM”; in the assay with P. aeruginosa [9] (P. aeruginosa), “P. aeruginosa, 50 μM”; with C. difficile, “C. difficile, 12.5 μM”. Besides, the Activities entry in the assay with microorganisms is reported as “G M”.
